The text below walks through data of US10138247B2, “7-(morpholin-4-yl)pyrazole[1,5-A]pyrimidine derivatives as PI3 kinase inhibitors” (priority 2015, dated 2018).

One series concerns the target T1, PI3Kα (Homo sapiens, UniProt P42336).
T1 construct: purchased Carna Biosciences
Nature of the series: PI3K kinases inhibition in vitro (ADP-Glo), PI3Kα. It is filed as biochemical. The procedure: (§1) Tested compounds were dissolved in 100% DMSO, and thus obtained solutions were serially diluted in 1× reaction buffer. Recombinant kinase was diluted in a reaction mixture comprising 5× reaction buffer, substrate (1 mM sodium diacetate 4,5-bisphosphate phosphatydylinositol (PIP2) solution in 40 mM Tris buffer), and water. To the wells in a 96-wells plate, 5 μl of compounds solutions and 15 μl of the kinase solution in the reaction mixture were added. To initiate interaction of tested chemical compounds with the enzyme, the plate was incubated for 10 minutes at suitable temperature in a plate thermostat with orbital shaking at 600 rpm. Negative control wells contained all above reagents except tested compound and kinase, and positive control wells contained all above reagents except tested compounds. Enzymatic reaction was initiated by adding 5 μl of 150 μM ATP solution, subsequently the plate was incubated for 1 hour at 25° C. or 30° C. (depending on PI3K isoform tested) in plate thermostat with orbital shaking of the plate contents at 600 rpm. Reaction conditions are presented below in Table 12.
(§2) Detection of ADP formed in the enzymatic reaction was then performed using ADP-Glo Kinase Assay (Promega). To the wells of a 96-well plate 25 μl of ADP-Glo Reagent were added, and the plate was incubated for 40 minutes at 25° C. in a plate thermostat with orbital shaking at 600 rpm. Then to the wells of 96-well plate 50 μl of Kinase Detection Reagent were added and the plate was incubated for 40 minutes at 25° C. in a plate thermostat with orbital shaking at 600 rpm. After incubation time, luminescence intensity in a well was measured by Victor Light luminometer (Perkin Elmer, Inc.).
(§3) IC50 values were determined on the basis of luminescence intensity measurements in wells containing tested compounds at different concentrations and in control wells. These values were calculated with Graph Pad 5.03 software by fitting the curve using non-linear regression. Each compound was tested at least in quadruplicates (4 wells) on two 96-well plates using at least 4 wells of each of the controls.

The target of the next series is T2, PI3Kδ (Homo sapiens, UniProt O00329).
T2 construct: purchased Merck Millipore
As to the kind of experiment: PI3K kinases inhibition in vitro (ADP-Glo), PI3Kδ. It is filed as biochemical. Here is the method: as §1, §2, §3

The next series concerns the target T3, PI3Kγ (Homo sapiens, UniProt P48736).
T3 construct: purchased Merck Millipore
As to the kind of experiment: PI3K kinases inhibition in vitro (ADP-Glo), PI3Kγ. In kind it is biochemical. Here is the method:
as §1, §2, §3

Another series concerns the target T4, PI3Kβ (Homo sapiens, UniProt P42338).
T4 construct: purchased Merck Millipore
As to the kind of experiment: PI3K kinases inhibition in vitro (ADP-Glo), PI3Kβ. It is filed as biochemical. The procedure:
as §1, §2, §3

Series [1] in a line: Pharmacokinetics testing in vivo, oral, rats. The following applies: rat, Wistar rats, oral 30 mg/kg, serum. The procedure:
Tests were performed on about 12 weeks old Wistar rats, weight 250-300 g. Rats were given orally tested compounds at 30 mg/kg m.c. Blood samples were collected from animals for analysis in 6 time points—30 min, 1 h, 2 h, 4 h, 7 h, and 12 h from administration of the compound. Blood was collected to tubes with K2EDTA and centrifuged for 15 min, 2000×g, at room temperature to separate serum. Collected serum samples were maintained at −20° C. before analysis. Each of the compounds was tested on a group of 5 animals.
Serum concentrations of tested compounds were determined by spectrophotometry. For each of tested compounds, time to reach maximum serum concentration (Tmax), maximum concentration (Cmax), and area under the curve (AUC) were determined.

Setting [2] is: averaged, recombinant kinase, 25° C., 1 h, PIP2 30 μM, read-out: PI3Kδ IC50.
Where [3] appears, read: averaged, recombinant kinase, 30° C., 1 h, PIP2 50 μM, read-out: PI3Kγ IC50.
[4] abbreviates: averaged, recombinant kinase, 30° C., 1 h, PIP2 50 μM, read-out: PI3Kβ IC50.

Structures are written as SMILES. pIC50: −log10 of the molar value. Where two headings read alike, the source gives them in different places. Where only a bound is given, the exact number is not on record here.

T4 sequence (P42338 whole entry): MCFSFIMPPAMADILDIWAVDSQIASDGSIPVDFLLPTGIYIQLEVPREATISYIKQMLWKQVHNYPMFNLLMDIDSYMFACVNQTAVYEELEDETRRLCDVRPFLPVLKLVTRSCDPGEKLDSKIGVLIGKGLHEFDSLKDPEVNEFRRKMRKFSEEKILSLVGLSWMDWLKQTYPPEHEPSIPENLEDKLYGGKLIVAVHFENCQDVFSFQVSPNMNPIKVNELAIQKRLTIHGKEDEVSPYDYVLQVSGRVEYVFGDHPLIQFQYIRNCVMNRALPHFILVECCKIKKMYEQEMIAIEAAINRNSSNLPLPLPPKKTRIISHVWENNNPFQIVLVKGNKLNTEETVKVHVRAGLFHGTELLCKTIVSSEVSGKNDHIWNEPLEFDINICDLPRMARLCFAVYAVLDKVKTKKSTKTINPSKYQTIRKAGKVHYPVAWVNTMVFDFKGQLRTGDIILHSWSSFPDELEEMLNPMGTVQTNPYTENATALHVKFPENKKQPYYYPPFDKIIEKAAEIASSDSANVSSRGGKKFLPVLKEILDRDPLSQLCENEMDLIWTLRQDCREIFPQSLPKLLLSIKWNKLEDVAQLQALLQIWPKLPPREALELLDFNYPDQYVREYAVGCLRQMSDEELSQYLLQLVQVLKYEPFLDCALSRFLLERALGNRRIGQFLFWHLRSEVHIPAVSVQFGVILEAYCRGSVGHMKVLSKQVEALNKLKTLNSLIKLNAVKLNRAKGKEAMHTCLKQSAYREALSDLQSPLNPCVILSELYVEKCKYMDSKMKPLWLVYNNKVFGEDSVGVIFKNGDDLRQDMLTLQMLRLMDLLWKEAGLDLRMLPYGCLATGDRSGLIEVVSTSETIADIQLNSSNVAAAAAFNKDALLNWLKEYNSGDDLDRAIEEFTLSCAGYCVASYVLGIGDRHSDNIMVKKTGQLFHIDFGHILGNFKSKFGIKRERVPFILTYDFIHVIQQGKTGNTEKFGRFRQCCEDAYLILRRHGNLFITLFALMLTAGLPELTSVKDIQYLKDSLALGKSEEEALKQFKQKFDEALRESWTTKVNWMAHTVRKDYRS
T4 sequence (P27986 whole entry, further chain): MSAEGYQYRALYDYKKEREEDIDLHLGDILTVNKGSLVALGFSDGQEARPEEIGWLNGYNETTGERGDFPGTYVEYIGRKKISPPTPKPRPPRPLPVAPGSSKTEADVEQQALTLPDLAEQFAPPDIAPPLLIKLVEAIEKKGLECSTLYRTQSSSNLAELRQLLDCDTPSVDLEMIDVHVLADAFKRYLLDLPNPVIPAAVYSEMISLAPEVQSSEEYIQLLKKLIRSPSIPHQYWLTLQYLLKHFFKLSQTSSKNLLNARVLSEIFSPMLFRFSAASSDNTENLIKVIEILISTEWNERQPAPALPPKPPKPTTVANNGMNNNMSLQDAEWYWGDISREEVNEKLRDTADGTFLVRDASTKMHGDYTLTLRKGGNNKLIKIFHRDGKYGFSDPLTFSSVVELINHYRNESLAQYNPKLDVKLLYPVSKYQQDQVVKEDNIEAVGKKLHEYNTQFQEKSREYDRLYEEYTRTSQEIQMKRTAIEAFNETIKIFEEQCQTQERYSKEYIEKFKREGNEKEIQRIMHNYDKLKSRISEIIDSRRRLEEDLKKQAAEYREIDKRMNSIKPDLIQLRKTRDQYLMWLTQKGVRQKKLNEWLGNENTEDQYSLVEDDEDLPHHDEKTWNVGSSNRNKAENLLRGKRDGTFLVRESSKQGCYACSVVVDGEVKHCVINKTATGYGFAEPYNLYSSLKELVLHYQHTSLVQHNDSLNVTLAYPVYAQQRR
T2 sequence (O00329 whole entry): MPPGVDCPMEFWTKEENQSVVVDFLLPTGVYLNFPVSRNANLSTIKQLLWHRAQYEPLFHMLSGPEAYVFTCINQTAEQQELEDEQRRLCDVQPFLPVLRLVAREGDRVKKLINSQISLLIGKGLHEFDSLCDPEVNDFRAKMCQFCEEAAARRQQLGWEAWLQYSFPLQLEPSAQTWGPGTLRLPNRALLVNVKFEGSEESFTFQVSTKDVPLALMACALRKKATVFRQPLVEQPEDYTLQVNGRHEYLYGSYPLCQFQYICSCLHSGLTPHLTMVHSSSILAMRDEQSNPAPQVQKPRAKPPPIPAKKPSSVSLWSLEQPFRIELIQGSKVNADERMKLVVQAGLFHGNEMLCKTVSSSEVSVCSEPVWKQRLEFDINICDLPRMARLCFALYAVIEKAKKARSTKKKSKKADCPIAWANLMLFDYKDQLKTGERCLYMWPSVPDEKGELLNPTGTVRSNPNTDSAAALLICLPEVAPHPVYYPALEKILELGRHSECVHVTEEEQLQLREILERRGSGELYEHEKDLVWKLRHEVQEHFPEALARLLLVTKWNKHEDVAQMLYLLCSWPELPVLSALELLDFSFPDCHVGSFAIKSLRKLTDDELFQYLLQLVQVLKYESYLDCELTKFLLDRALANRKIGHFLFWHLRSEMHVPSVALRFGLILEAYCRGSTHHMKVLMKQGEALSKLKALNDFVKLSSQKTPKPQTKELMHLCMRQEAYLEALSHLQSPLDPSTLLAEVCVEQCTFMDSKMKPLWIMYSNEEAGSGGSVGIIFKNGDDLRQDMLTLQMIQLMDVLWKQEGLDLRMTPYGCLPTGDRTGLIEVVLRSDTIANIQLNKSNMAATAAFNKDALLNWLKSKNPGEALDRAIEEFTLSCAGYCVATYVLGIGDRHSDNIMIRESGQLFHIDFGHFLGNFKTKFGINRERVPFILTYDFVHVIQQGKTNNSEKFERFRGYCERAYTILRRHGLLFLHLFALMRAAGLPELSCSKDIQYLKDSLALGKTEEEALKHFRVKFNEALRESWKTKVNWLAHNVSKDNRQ
T2 sequence (P27986 whole entry, further chain): as the sequence (P27986 whole entry, further chain) above
T1 sequence (P42336 whole entry): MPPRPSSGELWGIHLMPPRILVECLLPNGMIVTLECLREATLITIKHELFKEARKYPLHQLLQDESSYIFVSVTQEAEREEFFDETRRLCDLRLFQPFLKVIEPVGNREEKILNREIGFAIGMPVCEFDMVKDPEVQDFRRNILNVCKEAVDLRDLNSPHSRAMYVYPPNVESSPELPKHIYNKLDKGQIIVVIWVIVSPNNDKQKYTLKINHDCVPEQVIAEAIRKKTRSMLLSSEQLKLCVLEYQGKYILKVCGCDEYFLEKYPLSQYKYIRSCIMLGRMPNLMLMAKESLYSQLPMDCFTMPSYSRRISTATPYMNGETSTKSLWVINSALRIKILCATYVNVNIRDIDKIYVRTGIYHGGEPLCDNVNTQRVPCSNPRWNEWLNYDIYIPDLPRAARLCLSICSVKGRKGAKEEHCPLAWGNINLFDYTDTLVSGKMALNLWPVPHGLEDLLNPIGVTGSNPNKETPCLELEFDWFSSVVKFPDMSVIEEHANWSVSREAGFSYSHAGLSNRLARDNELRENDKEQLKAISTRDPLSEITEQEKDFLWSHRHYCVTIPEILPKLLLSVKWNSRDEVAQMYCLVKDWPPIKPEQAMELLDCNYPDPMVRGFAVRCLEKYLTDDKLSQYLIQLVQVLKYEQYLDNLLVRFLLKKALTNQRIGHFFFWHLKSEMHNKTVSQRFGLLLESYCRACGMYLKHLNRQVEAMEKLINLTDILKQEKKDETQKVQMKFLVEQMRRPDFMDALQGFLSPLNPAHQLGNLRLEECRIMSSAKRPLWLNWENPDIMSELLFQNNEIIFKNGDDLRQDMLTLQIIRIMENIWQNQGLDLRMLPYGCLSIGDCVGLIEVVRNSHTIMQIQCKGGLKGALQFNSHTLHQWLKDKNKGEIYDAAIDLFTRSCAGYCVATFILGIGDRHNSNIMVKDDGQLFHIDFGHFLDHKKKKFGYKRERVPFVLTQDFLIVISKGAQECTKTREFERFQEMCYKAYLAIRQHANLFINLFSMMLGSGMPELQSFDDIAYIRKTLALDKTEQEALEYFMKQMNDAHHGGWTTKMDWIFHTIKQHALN
T1 sequence (P27986 whole entry partner): as the sequence (P27986 whole entry, further chain) above
T3 sequence (P48736 whole entry): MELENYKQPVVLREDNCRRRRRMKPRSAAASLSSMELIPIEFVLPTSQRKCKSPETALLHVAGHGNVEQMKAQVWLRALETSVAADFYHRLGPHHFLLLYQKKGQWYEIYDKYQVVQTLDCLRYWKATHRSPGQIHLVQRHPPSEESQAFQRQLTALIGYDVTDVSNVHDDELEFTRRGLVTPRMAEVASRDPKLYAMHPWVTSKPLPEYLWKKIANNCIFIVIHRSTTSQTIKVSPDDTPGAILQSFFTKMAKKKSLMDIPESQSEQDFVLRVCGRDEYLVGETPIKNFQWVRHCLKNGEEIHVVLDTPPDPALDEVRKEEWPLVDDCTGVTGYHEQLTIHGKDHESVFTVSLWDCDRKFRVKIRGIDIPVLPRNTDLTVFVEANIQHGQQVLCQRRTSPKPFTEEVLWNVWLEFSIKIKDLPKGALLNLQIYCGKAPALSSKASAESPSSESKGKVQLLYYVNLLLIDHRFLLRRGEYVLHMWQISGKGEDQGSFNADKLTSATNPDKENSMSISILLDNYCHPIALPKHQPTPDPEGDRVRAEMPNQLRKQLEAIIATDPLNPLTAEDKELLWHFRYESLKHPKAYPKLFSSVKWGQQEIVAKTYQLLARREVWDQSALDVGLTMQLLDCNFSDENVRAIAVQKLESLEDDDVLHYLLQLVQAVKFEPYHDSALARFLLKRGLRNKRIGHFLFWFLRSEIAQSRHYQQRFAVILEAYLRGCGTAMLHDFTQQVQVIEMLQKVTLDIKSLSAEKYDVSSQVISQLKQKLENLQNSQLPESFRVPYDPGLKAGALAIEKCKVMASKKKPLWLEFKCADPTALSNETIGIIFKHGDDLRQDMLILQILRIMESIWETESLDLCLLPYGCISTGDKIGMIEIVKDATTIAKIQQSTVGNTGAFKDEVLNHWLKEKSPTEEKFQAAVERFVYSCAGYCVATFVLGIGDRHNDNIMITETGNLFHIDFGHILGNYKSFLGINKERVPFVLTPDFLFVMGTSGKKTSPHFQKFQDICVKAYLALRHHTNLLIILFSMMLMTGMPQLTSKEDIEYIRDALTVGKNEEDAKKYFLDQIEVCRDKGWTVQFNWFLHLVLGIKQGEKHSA

`CC(C)(C)N1CCN(Cc2cc3nc(-c4c(F)ccc5[nH]ccc45)cc(N4CCOCC4)n3n2)CC1` [Example 11, 2-((4-tert-butylpiperazin-1-yl)-methyl)-5-(5-fluoro-1H-indol-4-yl)-7-(morpholin-4-yl)pyrazolo[1,5-a]-pyrimidine]: the pIC50 at PI3Kα was under 6.00; on PI3Kδ (setting [2]) it was over 7.00; on PI3Kγ (setting [3]), under 6.00; against PI3Kβ, under 6.00. For the same compound, the AUC in series [1] stood at 1250 ng·h/mL. This compound also returned a Cmax in series [1] of 300 ng/mL. Besides, the Tmax in series [1] was determined as 2 h.
On to `CN(C)C1CCN(Cc2cc3nc(-c4cccc5[nH]ccc45)cc(N4CCOCC4)n3n2)CC1` [Example 5, 2-((4-(dimethylamino)piperidin-1-yl)methyl)-5-(1H-indol-4-yl)-7-(morpholin-4-yl)pyrazolo[1,5-a]-pyrimidine], for which the pIC50 against PI3Kα is under 6.00; against PI3Kδ, over 7.00; on PI3Kγ it was under 6.00; at PI3Kβ, under 6.00.
As to `CC(C)(C)N1CCN(Cc2cc3nc(-n4c(C(F)F)nc5ccccc54)cc(N4CCOCC4)n3n2)CC1` [Example 50, 5-(2-(difluoromethyl)benzimidazol-1-yl)-2-((4-tert-butylpiperazin-1-yl)methyl)-7-(morpholin-4-yl)-pyrazolo[1,5-a]pyrimidine], the pIC50 was 6.00 to 7.00 at PI3Kα, over 7.00 at PI3Kδ (setting [2]), under 6.00 on PI3Kγ (setting [3]) and under 6.00 at PI3Kβ (setting [4]). The compound also showed an AUC in series [1] of 5030 ng·h/mL. Moreover, the Cmax in series [1] is 900 ng/mL. Besides, the Tmax in series [1] worked out at 2 h.
As to `CC(C)(C)N1CCN(Cc2nn3c(N4CCOCC4)cc(-n4c(C(F)F)nc5ccccc54)nc3c2Cl)CC1` [Example 71, 5-(2-(difluoromethyl)benzimidazol-1-yl)-3-chloro-2-((4-tert-butylpiperazin-1-yl)methyl)-7-(morpholin-4-yl)pyrazolo[1,5-a]pyrimidine], the pIC50 is 6.00 to 7.00 against PI3Kα, over 7.00 at PI3Kδ (setting [2]), under 6.00 on PI3Kγ (setting [3]) and under 6.00 on PI3Kβ (setting [4]).
Regarding `CC(C)(O)C1CCN(Cc2cc3nc(-c4cccc5[nH]ccc45)cc(N4CCOCC4)n3n2)CC1` [Example 4, 2-((4-(2-hydroxypropan-2-yl)-piperidin-1-yl)methyl)-5-(1H-indol-4-yl)-7-(morpholin-4-yl)pyrazolo [1,5-a]pyrimidine], the pIC50 against PI3Kα was under 6.00; at PI3Kδ, over 7.00; against PI3Kγ, under 6.00; on PI3Kβ, under 6.00. For the same compound, the AUC in series [1] turned out to be 3580 ng·h/mL. In series [1], the concentration peaked (Cmax) at 600 ng/mL. Besides, in series [1], the Tmax came out at 2 h.
With `CC(C)(C)N1CCN(Cc2cc3nc(-c4cnc(N)nc4)cc(N4CCOCC4)n3n2)CC1` [Example 17, 5-(2-aminopyrimidin-5-yl)-2-((4-tert-butylpiperazin-1-yl)methyl)-7-(morpholin-4-yl)pyrazolo[1,5-a]-pyrimidine], the pIC50 against PI3Kα is under 6.00; at PI3Kδ (setting [2]), over 7.00; at PI3Kγ (setting [3]), under 6.00; at PI3Kβ (setting [4]), under 6.00.
Take `CC(C)(C)N1CCN(C(=O)c2cc3nc(-c4cccc5[nH]ccc45)cc(N4CCOCC4)n3n2)CC1` [Example 70, 2-(4-tert-butylpiperazin-1-ylcarbonyl)-5-(1H-indol-4-yl)-7-(morpholin-4-yl)pyrazolo[1,5-a]pyrimidine]: the pIC50 against PI3Kα was under 6.00; at PI3Kδ (setting [2]), over 7.00; at PI3Kγ (setting [3]), under 6.00; at PI3Kβ (setting [4]), under 6.00.
With `Cc1c(CN2CCC(C(C)(C)O)CC2)nn2c(N3CCOCC3)cc(-n3c(C(F)F)nc4ccccc43)nc12` [Example 69, 5-(2-(difluoromethyl)benzimidazol-1-yl)-3-methyl-2-((4-(2-hydroxy-propan-2-yl)piperidin-1-yl)methyl)-7-(morpholin-4-yl)pyrazolo[1,5-a]-pyrimidine], the pIC50 against PI3Kα was 6.00 to 7.00; on PI3Kδ (setting [2]), over 7.00; on PI3Kγ (setting [3]), under 6.00; on PI3Kβ (setting [4]), under 6.00.
With `CC(C)(C(N)=O)N1CCN(Cc2cc3nc(-c4cccc5[nH]ccc45)cc(N4CCOCC4)n3n2)CC1` [Example 9, 2-(4-((5-(1H-indol-4-yl)-7-(morpholin-4-yl)pyrazolo[1,5-a]-pyrimidin-2-yl)methyl)piperazin-1-yl)-2-methyl-propionamide], the pIC50 is under 6.00 against PI3Kα, over 7.00 against PI3Kδ, under 6.00 against PI3Kγ and under 6.00 at PI3Kβ.
For the compound `CC(C)(O)C1CCN(Cc2cc3nc(-c4ccnc5[nH]ccc45)cc(N4CCOCC4)n3n2)CC1` [Example 33, 5-(1H-7-azaindol-4-yl)-2-((4-(2-hydroxypropan-2-yl)piperidin-1-yl)methyl)-7-(morpholin-4-yl)-pyrazolo[1,5-a]pyrimidine], the pIC50 is under 6.00 against PI3Kα, over 7.00 at PI3Kδ (setting [2]), under 6.00 on PI3Kγ (setting [3]) and under 6.00 on PI3Kβ (setting [4]).
Turning to `Fc1ccc2[nH]ccc2c1-c1cc(N2CCOCC2)n2nc(CN3CCN(C4COC4)CC3)cc2n1` [Example 35], the pIC50 is under 6.00 on PI3Kα, over 7.00 on PI3Kδ (setting [2]), under 6.00 on PI3Kγ (setting [3]) and under 6.00 at PI3Kβ (setting [4]).
Take `CC(C)(C)N1CCN(Cc2cc3nc(-c4cccc5[nH]ccc45)cc(N4CCOCC4)n3n2)CC1` [Example 8, 2-((4-tert-butylpiperazin-1-yl)-methyl)-5-(1H-indol-4-yl)-7-(morpholin-4-yl)pyrazolo[1,5-a]-pyrimidine]: the pIC50 against PI3Kα is under 6.00; against PI3Kδ, over 7.00; on PI3Kγ, under 6.00; at PI3Kβ, under 6.00. The AUC in series [1] came out at 1290 ng·h/mL. The highest level in series [1] (Cmax) was 200 ng/mL. The Tmax in series [1] was 2 h.
In the case of `CC(C)(C(N)=O)N1CCN(Cc2cc3nc(-c4c(F)ccc5[nH]ccc45)cc(N4CCOCC4)n3n2)CC1` [Example 10, 2-(4-((5-(5-fluoro-1H-indol-4-yl)-7-(morpholin-4-yl)pyrazolo[1,5-a]-pyrimidin-2-yl)methyl)piperazin-1-yl)-2-methyl-propionamide], the pIC50 against PI3Kα is under 6.00; at PI3Kδ (setting [2]) it was over 7.00; on PI3Kγ (setting [3]), under 6.00; on PI3Kβ (setting [4]) it was under 6.00.
Regarding `CC(C)(C)N1CCN(Cc2cc3nc(-c4ccc(N)nc4)cc(N4CCOCC4)n3n2)CC1` [Example 16, 5-(2-aminopyridin-5-yl)-2-((4-tert-butylpiperazin-1-yl)methyl)-7-(morpholin-4-yl)pyrazolo[1,5-a]-pyrimidine], the pIC50 is under 6.00 at PI3Kα, over 7.00 on PI3Kδ (setting [2]), under 6.00 on PI3Kγ (setting [3]) and under 6.00 on PI3Kβ (setting [4]).
